Experimental data published in patent US20140081017A1, “Histone Deacetylase Inhibitors for Enhancing Activity of Antifungal Agents” (METHYLGENE INC., priority 2012, published 2014).
Values after ≈ are worked out from the molar mass of the structure shown. Read-outs that look alike come from different tables or passages of the source.

What was measured:
[1] = test system: C. glabrata; assay: Checkerboard FIC assay in combination with fluconazole (MIC alone and in combination, FICI); type: cell-based, Candida glabrata; conditions: for FICI of combination resulting in fluconazole MIC of: 2 ug/mL / FICI of combination resulting in fluconazole MIC of: 4 ug/mL / FICI of combination resulting in fluconazole MIC of: 8 ug/mL: FICI calculated using a fluconazole MIC of 16 μg/mL; for FICI of combination resulting in fluconazole MIC of: 2 ug/mL (value in parenthesis) / FICI of combination resulting in fluconazole MIC of: 4 ug/mL (value in parenthesis) / FICI of combination resulting in fluconazole MIC of: 8 ug/mL (value in parenthesis): FICI using a fluconazole MIC of 128 μg/mL; for MIC: Nakaseomyces glabratus; for Multiple of compound MIC to synergize fluconazole MIC to 2 ug/mL / Multiple of compound MIC to synergize fluconazole MIC to 4 ug/mL / Multiple of compound MIC to synergize fluconazole MIC to 8 ug/mL: concentration in combination as multiple of the compound's MIC alone; for Multiple of compound MIC to synergize fluconazole MIC to 2 ug/mL: fluconazole MIC 2 ug/mL; for Multiple of compound MIC to synergize fluconazole MIC to 4 ug/mL: fluconazole MIC 4 ug/mL; for Multiple of compound MIC to synergize fluconazole MIC to 8 ug/mL: fluconazole MIC 8 ug/mL; for Concentration of Methylgene compound to synergize fluconazole MIC to 2 ug/mL / Concentration of Methylgene compound to synergize fluconazole MIC to 4 ug/mL / Concentration of Methylgene compound to synergize fluconazole MIC to 8 ug/mL: in combination with fluconazole; for Concentration of Methylgene compound to synergize fluconazole MIC to 2 ug/mL: fluconazole MIC lowered to 2 ug/mL; for Concentration of Methylgene compound to synergize fluconazole MIC to 4 ug/mL: fluconazole MIC lowered to 4 ug/mL; for Concentration of Methylgene compound to synergize fluconazole MIC to 8 ug/mL: fluconazole MIC lowered to 8 ug/mL
In short: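 A fluconazole synergy checkerboard was run against C. glabrata in MOPS-buffered RPMI (pH 7.0) for about 48 h at 35 °C. Each agent was diluted 2-fold, with one row and one column holding each agent alone for MIC determination. FICI was calculated from these MICs, using a 0.5 McFarland inoculum diluted 1:100 per CLSI.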

[2] = test system: Candida albicans; assay: Minimal Inhibitory Concentration (MIC) assay, broth microdilution per CLSI; type: cell-based; conditions: Candida albicans, read-out: Minimum Inhibitory Concentrations against Yeast Isolates, Candida albicans;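 further: two read times 24 hr and 48 hr of incubation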
In short: (§1)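 Yeasts incubated ~24-48 hr at 35°C in MOPS-buffered RPMI (0.165 M, pH 7.0) containing DMSO-dissolved compound, following CLSI microdilution. Inoculum: 0.5 McFarland, diluted 1:100. MIC read visually as lowest concentration inhibiting growth (prominent-decrease endpoint for fluconazole).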

[3] = test system: Candida glabrata; assay: as above; type: cell-based; conditions: Nakaseomyces glabratus, read-out: Minimum Inhibitory Concentrations against Yeast Isolates, Candida glabrata;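 further: two read times 24 hr and 48 hr of incubation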
In short: as §1

[4] = test system: Candida parapsilosis; assay: as above; type: cell-based; conditions: Lodderomyces parapsilosis, read-out: Minimum Inhibitory Concentrations against Yeast Isolates, Candida parapsilosis;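 further: two read times 24 hr and 48 hr of incubation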
In short: as §1

[5] = MIC of the example compound alone against C. glabrata in the checkerboard assay, approximately 48 hr, read-out: Methylgene MIC
[6] = test compound alone, C. glabrata, approx. 48 hr at 35° C., read-out: Compound MIC
[7] = 24 hr reading (first value of cell 24 hr/48 hr)
[8] = 48 hr reading (second value of cell 24 hr/48 hr)

Row | Compound | FICI of combination resulting in fluconazole MIC of: 2 ug/mL ([1]; C. glabrata) | FICI of combination resulting in fluconazole MIC of: 4 ug/mL ([1]; C. glabrata) | FICI of combination resulting in fluconazole MIC of: 8 ug/mL ([1]; C. glabrata) | FICI of combination resulting in fluconazole MIC of: 2 ug/mL (value in parenthesis) ([1]; C. glabrata) | FICI of combination resulting in fluconazole MIC of: 4 ug/mL (value in parenthesis) ([1]; C. glabrata) | FICI of combination resulting in fluconazole MIC of: 8 ug/mL (value in parenthesis) ([1]; C. glabrata) | MIC [1, 5] [µg/mL] | MIC [1, 6] [µg/mL] | Multiple of compound MIC to synergize fluconazole MIC to 2 ug/mL [1] | Multiple of compound MIC to synergize fluconazole MIC to 4 ug/mL [1] | Multiple of compound MIC to synergize fluconazole MIC to 8 ug/mL [1] | Concentration of Methylgene compound to synergize fluconazole MIC to 2 ug/mL ([1]; C. glabrata) [µg/mL] | Concentration of Methylgene compound to synergize fluconazole MIC to 4 ug/mL ([1]; C. glabrata) [µg/mL] | Concentration of Methylgene compound to synergize fluconazole MIC to 8 ug/mL ([1]; C. glabrata) [µg/mL] | MIC [2, 7] [µg/mL] | MIC [2, 8] [µg/mL] | MIC [3, 7] [µg/mL] | MIC [3, 8] [µg/mL] | MIC [4, 7] [µg/mL] | MIC [4, 8] [µg/mL]
1 | COCCOCCOCCNC(=O)c1ccc(CCCCc2ccc(CC(=O)NO)cc2)cc1 [Example 11, 4-(4-(4-(2-(hydroxyamino)-2-oxoethyl)phenyl)butyl)-N-(2-(2-(2-methoxyethoxy)ethoxy)ethyl)benzamide] | 0.375 | 0.375 | 0.625 | 0.266 | 0.156 | 0.188 | 8 | 8 | (¼x) | (⅛x) | (⅛x) | 2 | 1 | 1 | > 64 | > 64 | > 64 | > 64 | > 64 | > 64
2 | COCCOCCOCCNS(=O)(=O)c1ccc(CCCCc2ccc(CC(=O)NO)cc2)cc1 [Example 12, N-hydroxy-2-(4-(4-(4-(N-(2-(2-(2-methoxyethoxy)ethoxy)ethyl)sulfamoyl)phenyl)butyl)phenyl)acetamide] | 0.313 | 0.250 | 0.375 | 0.266 | 0.156 | 0.188 | 16 | 16 | (¼x) | (⅛x) | (⅛x) | 4 | 2 | 2 | > 64 | > 64 | 4 (≈ 7.86 µM) | 16 (≈ 31.5 µM) | > 64 | > 64
3 | COc1ccc(CCCCc2ccc(CC(=O)NO)cc2)cc1OC [Example 13, 2-(4-(4-(3,4-dimethoxyphenyl)butyl)phenyl)-N-hydroxyacetamide] | 0.313 | 0.375 | 0.375 | 0.266 | 0.281 | 0.188 | 4 | 4 | (¼x) | (¼x) | (⅛x) | 1 | 1 | 0.5 | 8 (≈ 23.3 µM) | 16 (≈ 46.6 µM) | 2 (≈ 5.82 µM) | 4 (≈ 11.6 µM) | 16 (≈ 46.6 µM) | > 16
4 | O=C(Cc1ccc(CCCCc2ccc(C(=O)O)cc2)cc1)NO [Example 14, 4-(4-(4-(2-(hydroxyamino)-2-oxoethyl)phenyl)butyl)benzoic acid] | > 0.563 | > 0.625 | > 0.750 | > 0.516 | > 0.531 | > 0.563 | > 16 | > 16 |  |  |  | 16 | 16 | 16 | 16 (≈ 48.9 µM) | > 64 | 32 (≈ 97.7 µM) | 64 (≈ 195 µM) | 32 (≈ 97.7 µM) | > 64
5 | O=C(Cc1ccc(CCCCc2ccc(O)cc2)cc1)NO [Example 15, N-hydroxy-2-(4-(4-(4-hydroxyphenyl)butyl)phenyl)acetamide] | 0.375 | 0.500 | 0.625 | 0.266 | 0.281 | 0.188 | 8 | 8 | (¼x) | (¼x) | (⅛x) | 2 | 2 | 1 | > 16 | > 16 | > 8 | > 8 | > 16 | > 16
6 | O=C(Cc1ccc(CCCCc2ccc(OCCCN3CCOCC3)cc2)cc1)NO [Example 16, N-hydroxy-2-(4-(4-(4-(3-morpholinopropoxy)phenyl)butyl)phenyl)acetamide] | 0.375 | 0.500 | 0.625 | 0.266 | 0.281 | 0.188 | 2 | 2 | (¼x) | (¼x) | (⅛x) | 0.5 | 0.5 | 0.25 | > 16 | > 16 | > 32 | > 32 | > 16 | > 16
7 | O=C(Cc1ccc(CCCCc2ccc(O)c(O)c2)cc1)NO [Example 19, 2-(4-(4-(3,4-dihydroxyphenyl)butyl)phenyl)-N-hydroxyacetamide] | 0.313 | 0.375 | 0.500 | 0.266 | 0.281 | 0.313 | 2 | 2 | (¼x) | (¼x) | (¼x) | 0.5 | 0.5 | 0.5 | 16 (≈ 50.7 µM) | 32 (≈ 101 µM) | 1 (≈ 3.17 µM) | 2 (≈ 6.34 µM) | 32 (≈ 101 µM) | 32 (≈ 101 µM)
